We go through 8 compounds from US8404677B2, “Kinase inhibitors” (Genosco, priority 2009, dated 2013).

The IC50 is the concentration that gives 50% inhibition. Broadly, the inhibition is how much of the control response was suppressed.

Counter-ions that a name gives are not always drawn.

Assay [1] concerns MV4-11 cells expressing human FLT3-ITD. Kind of assay: Cell viability assay: FLT3-ITD-positive cells. Format: cell-based. Conditions: for IC50: Homo sapiens, 72-hour incubation, read-out: MV-4-11 cell viability IC50; for inhibition level compared with Vandetinib and Sunitinib: FLT3 ITD induced cancer cell line. Here is the method:
Compounds of the invention were tested for cell viability effect on MV4-11 cells. For cell viability assay, MV4-11 cells expressing human FLT3-ITD were obtained from the American Type Culture Collection (ATCC, Manassas, Va.). This cell line was maintained with an Roswell Park Memorial Institute (RPMI) medium (HyClone™) containing 10 bovine calf serum (BCS; Hyclone™) supplemented iron. […] CellTiter Aqueous assay (Promega™) was also performed in parallel as an orthogonal assay. IC50 values were calculated using nonlinear regression and defined as the concentration needed for a 50 reduction in luminescence or absorbance treated versus untreated control cells (Prism™ Software).

The next assay relates to MTC-TT. Kind of assay: Cell viability assay: RET inhibition. Format: cell-based, human. The note with it: for IC50: Homo sapiens, 48 h, two days after drug treatment; for inhibition level compared with Vandetinib and Sunitinib: RET induced cancer cell line. Here is the method:
In order to address RET dependent cell viability, the medullary thyroid carcinoma cell line, MTC-TT representing MEN2A was utilized to test compounds of the invention. MTC-TT were cultured at RPMI containing 15 bovine calf serum (Hyclon™ of Thermo™) and supplemented with 2 mM L-Glutamine. The cells were grown at a density of 5×10^4 cells/100 μL/well in duplicate in 96-well plates for one day and treated with different concentrations of test compound. Cell viability for MTC-TT two days after drug treatment was measured by Cell Titer 96 Aqueous One Solution Reagent (Promega™) according to the manufacture instructions. The IC50 value of test compound was calculated at Gradpad Prism 5 unless specified otherwise.

The target in the next assay is T1, truncated human RET (Homo sapiens, UniProt P07949).
T1 construct: truncated human FAK, RET, FLT3, JAK2, and LRRK2 (CARNA BIOSCIENCES™); purchased Carna Biosciences
T1 sequence (P07949 658-1114 limits assumed): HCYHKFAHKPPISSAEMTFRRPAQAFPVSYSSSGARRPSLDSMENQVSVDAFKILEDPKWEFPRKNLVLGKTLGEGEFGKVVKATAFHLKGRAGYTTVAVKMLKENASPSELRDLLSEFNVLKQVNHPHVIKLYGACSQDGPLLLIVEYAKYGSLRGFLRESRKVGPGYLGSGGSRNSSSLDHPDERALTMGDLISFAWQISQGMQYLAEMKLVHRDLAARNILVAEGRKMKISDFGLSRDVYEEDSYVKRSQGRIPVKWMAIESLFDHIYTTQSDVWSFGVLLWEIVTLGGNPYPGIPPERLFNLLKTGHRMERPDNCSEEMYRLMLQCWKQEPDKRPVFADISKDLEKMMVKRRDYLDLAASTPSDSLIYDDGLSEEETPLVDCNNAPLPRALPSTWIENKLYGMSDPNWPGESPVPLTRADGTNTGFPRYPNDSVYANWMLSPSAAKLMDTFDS
Kind of assay: Inhibition of enzymatic kinase activity (LANCE Ulight). Format: biochemical. Here is the method:
(§1) Inhibition of Enzymatic SYK, ZAP70, PYK2, FAK, PIM1, RET, FLT3, JAK2 and LRRK2 Kinase Activity
(§2) Compounds of the invention were initially diluted to 10 mM in 100% DMSO (CALBIOCHEM™) for storage and made into kinase buffer solution to create a compound concentration ranging from 1 uM and 10 uM. Serial dilutions of compounds of the invention were dispensed into a 96-well plate (GREINER BIOSCIENCES™) at 6 μL each. Purified full-length human SYK, ZAP70, PIM1, PYK2 and truncated human FAK, RET, FLT3, JAK2, and LRRK2 (CARNA BIOSCIENCES™) were diluted in kinase buffer and added to the compound solutions and pre-incubated for 30 minutes at room temperature (1 hour for PYK2). […] The reaction mixture was incubated for 1 hour (2 hours for PYK2). Following the incubation, the stop solution made with EDTA, water, and Lance detection buffer ([…]™) was added (12 μL each) to stop phosphorylation.
A general note: In TR-FRET formats the signal depends on donor and acceptor labels being close together.

The next assay deals with T2, truncated human FLT3 (Homo sapiens, UniProt P36888).
T2 construct: truncated human FAK, RET, FLT3, JAK2, and LRRK2 (CARNA BIOSCIENCES™); purchased Carna Biosciences
T2 sequence (P36888 564-993 limits assumed): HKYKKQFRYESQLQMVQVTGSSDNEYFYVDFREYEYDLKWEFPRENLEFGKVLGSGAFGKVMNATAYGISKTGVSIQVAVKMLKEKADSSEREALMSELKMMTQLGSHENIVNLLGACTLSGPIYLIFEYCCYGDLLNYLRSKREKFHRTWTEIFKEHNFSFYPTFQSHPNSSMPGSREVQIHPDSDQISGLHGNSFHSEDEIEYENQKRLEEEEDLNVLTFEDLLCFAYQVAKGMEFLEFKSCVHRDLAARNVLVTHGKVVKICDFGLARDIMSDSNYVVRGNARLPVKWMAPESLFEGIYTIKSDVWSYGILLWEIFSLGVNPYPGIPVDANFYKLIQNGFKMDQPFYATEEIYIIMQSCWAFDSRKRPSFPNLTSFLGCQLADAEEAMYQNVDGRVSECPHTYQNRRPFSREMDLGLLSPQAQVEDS
The description is as above. Format: biochemical. On the procedure: as §1, §2

The next assay has as its target T3, truncated human JAK2 (Homo sapiens, UniProt O60674).
T3 construct: truncated human FAK, RET, FLT3, JAK2, and LRRK2 (CARNA BIOSCIENCES™); purchased Carna Biosciences
Described as above. Format: biochemical. On the procedure: as §1, §2

The next assay addresses T4, truncated human FAK (Homo sapiens, UniProt Q05397).
T4 construct: truncated human FAK, RET, FLT3, JAK2, and LRRK2 (CARNA BIOSCIENCES™); purchased Carna Biosciences
The description is as above. The note with it: at 1 μM concentration; for inhibition at 1 µM: read-out: FAK percentage inhibition. Format: biochemical. On the procedure:
as §1, §2

Another assay concerns the target T5, human ZAP70 (Homo sapiens, UniProt P43403).
T5 construct: Purified full-length human SYK, ZAP70, PIM1, PYK2; purchased Carna Biosciences
T5 sequence (P43403 1-619): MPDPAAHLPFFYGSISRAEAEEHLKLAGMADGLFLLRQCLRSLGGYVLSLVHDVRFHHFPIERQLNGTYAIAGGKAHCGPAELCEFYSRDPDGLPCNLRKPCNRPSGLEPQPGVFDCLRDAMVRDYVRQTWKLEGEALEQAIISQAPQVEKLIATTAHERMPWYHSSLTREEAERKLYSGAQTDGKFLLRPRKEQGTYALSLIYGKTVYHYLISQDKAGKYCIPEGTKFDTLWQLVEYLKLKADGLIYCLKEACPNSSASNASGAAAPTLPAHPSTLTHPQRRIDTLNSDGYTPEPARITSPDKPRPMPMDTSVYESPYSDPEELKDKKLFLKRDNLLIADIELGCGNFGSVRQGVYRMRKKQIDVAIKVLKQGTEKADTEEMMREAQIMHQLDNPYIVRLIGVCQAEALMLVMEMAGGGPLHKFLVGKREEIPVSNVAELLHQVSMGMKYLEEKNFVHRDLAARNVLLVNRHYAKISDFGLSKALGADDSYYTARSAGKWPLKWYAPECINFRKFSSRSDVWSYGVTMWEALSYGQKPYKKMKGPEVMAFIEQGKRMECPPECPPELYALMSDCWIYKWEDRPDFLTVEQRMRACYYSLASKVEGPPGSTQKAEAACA
The description is as above. Format: biochemical. The note with it: at 1 μM concentration; for inhibition at 1 µM: read-out: ZAP70 percentage inhibition. On the procedure:
as §1, §2

For another assay, the target named is T6, human PIM1 (Homo sapiens, UniProt P11309).
T6 construct: Purified full-length human SYK, ZAP70, PIM1, PYK2; purchased Carna Biosciences
The assay is described as above. Conditions: at 1 μM concentration; for inhibition at 1 µM: read-out: PIM1 percentage inhibition. Format: biochemical. On the procedure: as §1
as §2, with “phosphorylation. […] Substrate phosphorylation was a function of the 665 nm emission measured following the addition of the detection solution and 50 minutes of incubation.” for “phosphorylation.”

The target of the next assay is PYK2 (Homo sapiens, UniProt Q14289). The description is as above. Conditions: at 1 μM concentration; for inhibition at 1 µM: read-out: PYK2 percentage inhibition. Format: biochemical. Details: Purified full-length human SYK, ZAP70, PIM1, PYK2; purchased Carna Biosciences. On the procedure: as §1, §2
The target in a further assay is SYK (Homo sapiens, UniProt P43405). The description is as above. Also noted: Purified full-length human SYK, ZAP70, PIM1, PYK2; purchased Carna Biosciences. Format: biochemical. Conditions: at 1 μM concentration; for inhibition at 1 µM: read-out: SYK percentage inhibition. Here is the method: as §1, §2

T6 sequence (P11309 whole entry): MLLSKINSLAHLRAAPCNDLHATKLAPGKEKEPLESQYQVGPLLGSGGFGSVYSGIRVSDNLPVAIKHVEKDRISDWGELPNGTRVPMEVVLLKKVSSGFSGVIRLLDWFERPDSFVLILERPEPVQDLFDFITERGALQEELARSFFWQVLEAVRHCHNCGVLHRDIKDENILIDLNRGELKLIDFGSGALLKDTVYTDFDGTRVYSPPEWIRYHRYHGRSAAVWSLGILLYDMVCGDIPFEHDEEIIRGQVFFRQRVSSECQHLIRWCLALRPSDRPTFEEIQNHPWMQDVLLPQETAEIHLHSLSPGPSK
T4 sequence (Q05397 376-1052 limits assumed): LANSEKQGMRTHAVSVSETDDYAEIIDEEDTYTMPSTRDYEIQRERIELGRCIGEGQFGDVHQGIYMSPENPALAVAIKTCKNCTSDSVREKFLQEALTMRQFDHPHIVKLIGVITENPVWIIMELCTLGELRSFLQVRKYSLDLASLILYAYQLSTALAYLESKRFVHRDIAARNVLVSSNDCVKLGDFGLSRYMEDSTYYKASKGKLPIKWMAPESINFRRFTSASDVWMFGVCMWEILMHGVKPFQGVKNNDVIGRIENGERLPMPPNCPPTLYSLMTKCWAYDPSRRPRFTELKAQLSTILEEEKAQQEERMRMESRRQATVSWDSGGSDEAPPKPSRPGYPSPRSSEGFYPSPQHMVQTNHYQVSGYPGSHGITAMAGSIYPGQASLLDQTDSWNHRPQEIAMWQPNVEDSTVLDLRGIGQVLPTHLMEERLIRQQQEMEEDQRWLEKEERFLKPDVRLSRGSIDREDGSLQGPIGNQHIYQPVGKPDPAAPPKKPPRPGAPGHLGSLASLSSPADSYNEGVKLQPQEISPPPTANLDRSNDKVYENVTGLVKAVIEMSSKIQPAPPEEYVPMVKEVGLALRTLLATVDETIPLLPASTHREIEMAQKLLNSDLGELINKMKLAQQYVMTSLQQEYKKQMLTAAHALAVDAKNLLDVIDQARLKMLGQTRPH
Sequence of PYK2 (Q14289 whole entry): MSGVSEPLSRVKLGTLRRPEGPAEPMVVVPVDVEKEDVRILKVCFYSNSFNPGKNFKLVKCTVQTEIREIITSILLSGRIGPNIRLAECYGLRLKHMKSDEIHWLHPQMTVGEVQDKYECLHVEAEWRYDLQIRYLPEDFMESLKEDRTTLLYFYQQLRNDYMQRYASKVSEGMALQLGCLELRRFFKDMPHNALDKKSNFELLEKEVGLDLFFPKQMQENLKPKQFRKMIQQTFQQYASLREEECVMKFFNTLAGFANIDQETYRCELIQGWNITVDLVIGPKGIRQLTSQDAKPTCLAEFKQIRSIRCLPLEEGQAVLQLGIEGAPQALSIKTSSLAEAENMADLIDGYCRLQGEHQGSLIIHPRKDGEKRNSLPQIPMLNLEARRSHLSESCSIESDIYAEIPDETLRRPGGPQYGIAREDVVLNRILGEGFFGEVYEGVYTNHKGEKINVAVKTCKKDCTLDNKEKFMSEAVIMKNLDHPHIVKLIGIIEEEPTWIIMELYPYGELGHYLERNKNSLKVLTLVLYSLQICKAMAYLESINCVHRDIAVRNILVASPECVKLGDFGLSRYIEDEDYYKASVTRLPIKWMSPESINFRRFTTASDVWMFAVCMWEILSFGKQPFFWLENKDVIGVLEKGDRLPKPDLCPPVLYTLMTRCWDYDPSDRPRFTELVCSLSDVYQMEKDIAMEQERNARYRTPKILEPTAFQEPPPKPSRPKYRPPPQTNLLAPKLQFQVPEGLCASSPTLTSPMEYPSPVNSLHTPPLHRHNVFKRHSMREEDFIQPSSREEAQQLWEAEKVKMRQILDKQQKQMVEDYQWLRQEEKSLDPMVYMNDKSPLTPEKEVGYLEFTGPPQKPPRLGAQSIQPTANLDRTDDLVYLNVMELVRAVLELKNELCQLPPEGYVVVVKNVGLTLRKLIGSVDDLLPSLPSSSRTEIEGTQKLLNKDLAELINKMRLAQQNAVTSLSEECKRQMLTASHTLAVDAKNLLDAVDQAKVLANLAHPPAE
T3 sequence (O60674 826-1132 limits assumed): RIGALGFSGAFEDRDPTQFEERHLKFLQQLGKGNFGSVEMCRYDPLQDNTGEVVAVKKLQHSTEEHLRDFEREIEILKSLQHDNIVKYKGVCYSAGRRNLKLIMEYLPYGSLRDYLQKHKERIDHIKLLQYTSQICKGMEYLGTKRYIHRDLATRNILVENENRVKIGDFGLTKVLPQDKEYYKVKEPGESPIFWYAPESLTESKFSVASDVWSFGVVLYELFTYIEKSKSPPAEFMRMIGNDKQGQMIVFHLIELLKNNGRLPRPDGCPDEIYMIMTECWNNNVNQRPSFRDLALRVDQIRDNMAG

On to `CCN(CC)CCNC(=O)c1c(C)[nH]c(/C=C2\C(=O)Nc3ccc(F)cc32)c1C` [Sunitinib, reference compound], for which the IC50 worked out at 3.8 nM in assay [1] (MV4-11) and 117 nM in the assay with MTC-TT.

With `Cl.O=c1[nH]ccc2nc(N[C@H]3CCNC3)nc(Nc3ccc(N4CCOCC4)cc3)c12` [Compound 136, (S)-4-(4-morpholinophenylamino)-2-(pyrrolidin-3-ylamino)pyrido[4,3-d]pyrimidin-5(6H)-one hydrochloride], the IC50 against truncated human RET worked out at 1.3 nM; on truncated human FLT3, 0.1 nM; on truncated human JAK2, 3.9 nM; in [1] (MV4-11), 0.1 nM; with MTC-TT it was 33 nM. The “inhibition level compared with Vandetinib and Sunitinib” value was “inhibition level greater than those exhibited by Vandetinib and Sunitinib” in assay [1]; “inhibition level greater than those exhibited by Vandetinib and Sunitinib” in the assay with MTC-TT.

For `NC1CCC(Nc2nc(Nc3cccc(C(F)(F)F)c3)c3c(=O)[nH]ccc3n2)CC1` [Compound 9, 2-((1R,4R)-4-aminocyclohexylamino)-4-(3-(trifluoromethyl)phenylamino)pyrido[4,3-d]pyrimidin-5(6H)-one], the inhibition at 1 µM is 83% on truncated human FAK; 32% at human ZAP70; 64% on human PIM1; 89% at PYK2; 84% on SYK.

For the compound `Cn1ccc2nc(N3CCC(O)CC3)nc(Nc3cccc(C(F)(F)F)c3)c2c1=O` [Compound 168, 2-(4-hydroxypiperidine-1-yl)-6-methyl-4-(3-(trifluoromethyl)phenylamino)pyrido[4,3-d]pyrimidin-5(6H)-one], the inhibition at 1 µM on truncated human FAK is 4.9%; on human ZAP70 it was 6.2%; on human PIM1, 7.3%; on PYK2 it was 1%; at SYK, 3%.

Take `CS(=O)(=O)c1ccc(Nc2nc(N3CCC(O)CC3)nc3cc[nH]c(=O)c23)cc1` [Compound 126, 2-(4-hydroxypiperidin-1-yl)-4(4-(methylsulfonyl)phenylamino)pyrido[4,3d]pyrimidin-5(6H)-one]: the inhibition at 1 µM was found to be 80.8% on truncated human FAK; 49.3% at human ZAP70; 12.7% at human PIM1; 39.5% on PYK2; 95.1% on SYK.

Turning to `NC1CCN(c2nc(Nc3cccc(Br)c3)c3c(=O)[nH]ccc3n2)CC1` [Compound 84, 2-(4-aminopiperidin-1-yl)-4-(3-bromophenylamino)pyrido[4,3-d]pyrimidin-5(6H)-one hydrochloride], the inhibition at 1 µM worked out at 92.9% at truncated human FAK; 54.6% at human ZAP70; 71.2% on human PIM1; 92.8% at PYK2; 95.7% on SYK.

In the case of “(2-((1R,2S)-2-aminocyclohexylamino)-4-(3-(trifluoromethyl)phenylamino)pyrido[4,3-d]pyrimidin-5(6H)-one with (2-((1S,2R)-2-aminocyclohexylamino)-4-(3-(trifluoromethyl)phenylamino)pyrido[4,3-d]pyrimidin-5(6H)-one [Compound 101]”, the FAK percentage inhibition at truncated human FAK came out at 77%. Also, the ZAP70 percentage inhibition at human ZAP70 worked out at 45%. For the same compound, the PIM1 percentage inhibition at human PIM1 is recorded as 61%. Also, on PYK2, the PYK2 percentage inhibition is on record as 85%. The SYK percentage inhibition on SYK is listed as 90%.

Take `Cl.O=c1[nH]ccc2nc(N[C@H]3CCNC3)nc(Nc3ccc(C(F)(F)F)cc3)c12` [Compound 8, (S)-2-(pyrrolidin-3-ylamino)-4-(4-(trifluoromethyl)phenylamino)pyrido[4,3-d]pyrimidin-5(6H)-one hydrochloride]: the IC50 is 2.6 nM against truncated human RET; 0.2 nM at truncated human FLT3; 12.7 nM against truncated human JAK2; 0.1 nM in assay [1] (MV4-11); 14 nM in the assay with MTC-TT. Also, the “inhibition level compared with Vandetinib and Sunitinib” value was “inhibition level greater than those exhibited by Vandetinib and Sunitinib” in [1]; “inhibition level greater than those exhibited by Vandetinib and Sunitinib” with MTC-TT. Further, in assay [1] (MV4-11), the “times higher inhibition in IC50 than Sunitinib and PKC-412” value is 10-30 time. Besides, in the assay on MTC-TT (MTC-TT), the “times higher inhibition in IC50 than Vandetanib and Sunitinib” value is recorded as 6 time.
